# Experimental data from ChEMBL document CHEMBL3046449, “Selective Herbicidal Activities of Ethyl 5-(4, 6-Dimethoxypyrimidin-2-ylcarbamoylsulfamoyl)-1-methylpyrazole-4-carboxylate and Its Related Compounds” (J Pestic Sci, 1990).
# Legend:
# [1] = Phytotoxicity against Oryza sativa (rice) assessed as growth inhibition under greenhouse at 5 g/ha measured after 18 days by preemergence activity assay; format: organism-based; details: in vivo, read-out: GI
# [2] = tested on: Rotala indica; test: Herbicidal activity against Rotala indica assessed as growth inhibition in paddy condition under greenhouse at 5 g/ha measured after 18 days by preemergence activity assay; format: functional; details: pre-emergence, 432 h, read-out: GI
# [3] = tested on: Pontederia vaginalis; test: Herbicidal activity against Monochoria vaginalis assessed as growth inhibition in paddy condition under greenhouse at 5 g/ha measured after 18 days by preemergence activity assay; format: functional; details: pre-emergence, 432 h, read-out: GI
# [4] = tested on: Schoenoplectiella juncoides; test: Herbicidal activity against Schoenoplectiella juncoides assessed as growth inhibition in paddy condition under greenhouse at 5 g/ha measured after 18 days by preemergence activity assay; format: functional; details: pre-emergence, 432 h, read-out: GI
# [5] = tested on: Echinochloa crus-galli; test: Herbicidal activity against Echinochloa crus-galli (barnyard grass) assessed as growth inhibition in paddy condition under greenhouse at 5 g/ha measured after 18 days by preemergence activity assay; format: functional; details: pre-emergence, 432 h, read-out: GI
# [6] = tested on: Oryza sativa; test: Effect on Oryza sativa (rice) plant growth in transplanted Oryza sativa field assessed as plant height at 1500 g/ha treated after 3 days transplanting; format: organism-based; details: in vivo, other, 72 h
# [7] = tested on: Cyperus serotinus; test: Herbicidal activity against Cyperus serotinus assessed as weed control in transplanted rice field at 1500 g/ha treated after 7 days transplanting; format: functional
# [8] = tested on: Sagittaria pygmaea; test: Herbicidal activity against Sagittaria pygmaea assessed as weed control in transplanted rice field at 1500 g/ha treated after 7 days transplanting; format: functional
# [9] = tested on: unidentified; test: Herbicidal activity against broadleaf weed assessed as weed control in transplanted rice field at 1500 g/ha treated after 7 days transplanting; format: functional
# [10] = tested on: Pontederia vaginalis; test: Herbicidal activity against Monochoria vaginalis assessed as weed control in transplanted rice field at 1500 g/ha treated after 7 days transplanting; format: functional
# [11] = tested on: Schoenoplectiella juncoides; test: Herbicidal activity against Schoenoplectiella juncoides assessed as weed control in transplanted rice field at 1500 g/ha treated after 7 days transplanting; format: functional
# [12] = tested on: Echinochloa crus-galli; test: Herbicidal activity against Echinochloa crus-galli (barnyard grass) assessed as weed control in transplanted rice field at 1500 g/ha treated after 7 days transplanting; format: functional
# [13] = tested on: Cyperus serotinus; test: Herbicidal activity against Cyperus serotinus assessed as weed control in transplanted rice field at 1500 g/ha treated after 3 days transplanting; format: functional
# [14] = tested on: Sagittaria pygmaea; test: Herbicidal activity against Sagittaria pygmaea assessed as weed control in transplanted rice field at 1500 g/ha treated after 3 days transplanting; format: functional
# [15] = tested on: unidentified; test: Herbicidal activity against broadleaf weed assessed as weed control in transplanted rice field at 1500 g/ha treated after 3 days transplanting; format: functional
# [16] = tested on: Pontederia vaginalis; test: Herbicidal activity against Monochoria vaginalis assessed as weed control in transplanted rice field at 1500 g/ha treated after 3 days transplanting; format: functional
# [17] = tested on: Schoenoplectiella juncoides; test: Herbicidal activity against Schoenoplectiella juncoides assessed as weed control in transplanted rice field at 1500 g/ha treated after 3 days transplanting; format: functional
# [18] = tested on: Echinochloa crus-galli; test: Herbicidal activity against Echinochloa crus-galli (barnyard grass) assessed as weed control in transplanted rice field at 1500 g/ha treated after 3 days transplanting; format: functional
# [19] = tested on: Oryza sativa; test: Effect on Oryza sativa (rice) plant growth in transplanted Oryza sativa field assessed as plant height at 1500 g/ha treated after 7 days transplanting; format: organism-based; details: in vivo, other, 168 h
# [20] = tested on: Oryza sativa; test: Effect on Oryza sativa (rice) plant growth in transplanted Oryza sativa field assessed as number of tillers at 1500 g/ha treated after 7 days transplanting; format: organism-based; details: in vivo, other, 168 h
# [21] = tested on: Oryza sativa; test: Effect on Oryza sativa (rice) plant growth in transplanted Oryza sativa field assessed as number of tillers at 1500 g/ha treated after 3 days transplanting; format: organism-based; details: in vivo, other, 72 h
SMILES,inhibition at 432 h [1] [%],inhibition of growth at 5 g/ha [2] [%],inhibition of growth at 5 g/ha [3] [%],inhibition of growth at 5 g/ha [4] [%],inhibition of growth at 5 g/ha [5] [%],other results
CCOC(=O)c1c(CC)nn(C)c1S(=O)(=O)NC(=O)Nc1nc(OC)cc(OC)n1,< 5,> 90,70,40,20,–
CCOC(=O)c1c(Cl)nn(C)c1S(=O)(=O)NC(=O)Nc1nc(OC)cc(OC)n1,< 5,> 90,> 90,70,20,–
CCOC(=O)c1c(C(F)(F)F)nn(C)c1S(=O)(=O)NC(=O)Nc1nc(OC)cc(OC)n1,< 5,20,< 5,< 5,< 5,–
CCOC(=O)c1c([N+](=O)[O-])nn(C)c1S(=O)(=O)NC(=O)Nc1nc(OC)cc(OC)n1,5,70,20,5,< 5,–
CCOC(=O)c1c(OC)nn(C)c1S(=O)(=O)NC(=O)Nc1nc(OC)cc(OC)n1,< 5,> 90,> 90,70,40,–
CCOC(=O)c1nn(C)c(S(=O)(=O)NC(=O)Nc2nc(OC)cc(OC)n2)c1C(=O)OCC,< 5,< 5,< 5,< 5,< 5,–
CCCOC(=O)c1cnn(C)c1S(=O)(=O)NC(=O)Nc1nc(OC)cc(OC)n1,< 5,> 90,> 90,70,< 5,–
CCCCOC(=O)c1cnn(C)c1S(=O)(=O)NC(=O)Nc1nc(OC)cc(OC)n1,< 5,< 5,< 5,< 5,< 5,–
COc1cc(OC)nc(NC(=O)NS(=O)(=O)c2c(C(=O)N(C)C)cnn2C)n1,< 5,< 5,< 5,< 5,< 5,–
COc1cc(OC)nc(NC(=O)NS(=O)(=O)c2c(S(=O)(=O)N(C)C)cnn2C)n1,> 90,> 90,70,> 90,40,–
COc1cc(OC)nc(NC(=O)NS(=O)(=O)c2c(C#N)cnn2C)n1,< 5,< 5,< 5,< 5,< 5,–
COc1cc(OC)nc(NC(=O)NS(=O)(=O)c2c([N+](=O)[O-])cnn2C)n1,< 5,< 5,< 5,< 5,< 5,–
CCC(=O)c1cnn(C)c1S(=O)(=O)NC(=O)Nc1nc(OC)cc(OC)n1,< 5,40,40,20,5,–
CCOC(=O)c1cn[nH]c1S(=O)(=O)NC(=O)Nc1nc(OC)cc(OC)n1,5,70,70,70,5,–
CCOC(=O)c1cnn(CC)c1S(=O)(=O)NC(=O)Nc1nc(OC)cc(OC)n1,5,> 90,> 90,70,5,–
CCCCn1ncc(C(=O)OCC)c1S(=O)(=O)NC(=O)Nc1nc(OC)cc(OC)n1,< 5,< 5,< 5,< 5,< 5,–
CCOC(=O)c1cnn(-c2ccccc2)c1S(=O)(=O)NC(=O)Nc1nc(OC)cc(OC)n1,< 5,70,40,20,< 5,–
CCOC(=O)c1cnn(C)c1S(=O)(=O)NC(=O)Nc1nc(C)cc(C)n1,5,40,< 5,< 5,< 5,–
CCOC(=O)c1cnn(C)c1S(=O)(=O)NC(=O)Nc1nc(C)cc(OC)n1,< 5,> 90,70,70,5,–
CCOC(=O)c1cnn(C)c1S(=O)(=O)NC(=O)Nc1nc(OC)nc(OC)n1,5,< 5,< 5,< 5,< 5,–
COc1cc(OC)nc(NC(=O)NS(=O)(=O)c2c(C)cnn2C)n1,< 5,70,40,20,20,–
COc1cc(OC)nc(NC(=O)NS(=O)(=O)c2c(Br)cnn2C)n1,< 5,40,70,40,< 5,–
COc1cc(OC)nc(NC(=O)NS(=O)(=O)c2c(C(=O)O)cnn2C)n1,< 5,< 5,< 5,< 5,< 5,–
COC(=O)c1cnn(C)c1S(=O)(=O)NC(=O)Nc1nc(OC)cc(OC)n1,< 5,> 90,> 90,70,40,–
CCOC(=O)c1c(C)nn(C)c1S(=O)(=O)NC(=O)Nc1nc(OC)cc(OC)n1,< 5,> 90,> 90,> 90,70,–
CCCCOCN(C(=O)CCl)c1c(CC)cccc1CC [BUTACHLOR],–,–,–,–,–,Activity [6]: 106%; Activity [7]: 70%; Activity [8]: 20%; Activity [9]: 83%; Activity [10]: 43%; Activity [11]: 88%; Activity [12]: 100%; Activity [13]: 63%; Activity [14]: 27%; Activity [15]: 100%; Activity [16]: 90%; Activity [17]: 100%; Activity [18]: 98%; Activity [19]: 103%; Activity [20]: 93%; Activity [21]: 99%
